Measurements: patent US11731977B2, “SGC stimulators” (Cyclerion Therapeutics, Inc., priority 2016, dated 2023)
Marks after values point to notes of the source that are not given here.

What was measured:
cGMP in rat CSF = assay: Rat CSF biomarker (cGMP) measurement (Example 7); type: in vivo
Description: This experiment was to determine the effect of different doses of a compound of the invention on the cGMP response as well as the compound concentration in rat CSF and compound concentration in rat plasma. Protocol. Each rat was sampled one time or multiple times with 3 or more days in between each dosing. Day before the experiment. Fast rats overnight with ad libitum access to water. Day of the experiment. Compound and cyclic guanosine monophosphate (cGMP) in rat CSF was determined following oral dosing. Male Sprague-Dawley rats with an indwelling catheter placed in the cisterna magna were used. The rats were dosed with 0 mg/kg (n=15), 3 mg/kg (n=19) and 10 mg/kg (n=20) of a compound of the invention formulated as a suspension in 0.5% methylcellulose, 0.5% Tween80. PO doses were administered by oral gavage and delivered to the stomach using a syringe and gavage tube. Following oral dosage administration, the gavage tube was flushed with approximately 0.5 mL of water to ensure complete delivery of the full dose. Plasma and CSF samples were collected under isoflurane anesthesia as follows: samples of CSF were collected at 1 hour and 6 hours post-dosing and samples of blood were collected 1 h post-dosing. CSF samples were collected through the intracisternal catheter. Approximately 20 μL of CSF and discard (dead volume is 14-16 μL); then withdraw approximately 50 μL of CSF in eppendorf tubes containing 5 μL of glacial acetic acid. Snap freeze CSF by immersion in liquid nitrogen. Blood samples (0.25 mL) were collected through retro-orbital sampling. These samples were kept on ice until processed for plasma. Blood samples were centrifuged at 3200 rpm for 10 minutes at approximately 5° C. within 1 hour of collection. Plasma was directly transferred to a 96-well plate tube (0.125 mL). Plug caps were placed on the tubes and the tubes frozen at approximately −70° C. and stored until analysis. Plasma was collected and analyzed for the presence of a compound. Quantitation of Compounds and cGMP. The compound of the invention, cGMP and the internal standard were extracted from plasma and CSF by precipitation. Samples were analyzed using liquid chromatography (LC) with tandem mass spectrometric detection (MS/MS) using electrospray ionization. The standard curve range was from 1 to 1000 ng/mL. Results of the compounds described herein in this assay are illustrated in Table 7 below (3 and 10 mg/kg dose). Statistics were determined by planned comparison t-tests.

rats [1] = assay: Acute and tonic pain: acetic acid test, abdominal cramps (Example 13); details: Compound I-1 p.o. 10 mg/kg, 120 minutes after treatment
Description: Acetic Acid Test. Abdominal contraction was induced by intraperitoneal injection of 0.6% acetic acid solution in rats (10 mL/kg). The number of writhing (a twisting or contorting of the body due to pain) was recorded from the 5th to the 15th minute after injection.
Testing: 120 minutes after treatment. N=4/model/test. Results are expressed for each group as a percentage of activity calculated from the mean value of the vehicle-treated animals and compared to naïve animals, control paw, or cut-off value, depending on the test.

rats [2] = assay: Inflammatory pain: kaolin, gait score (Example 13); type: in vivo, rat; details: Compound I-1 p.o. 10 mg/kg, 120 minutes after treatment
Description: Kaolin. Induction: In rats, unilateral arthritis was induced by an intra-articular injection of a 10% kaolin suspension into the knee joint of the right hind paw under gas anesthesia (3.5% isoflurane/3 L/min). Gait score: The gait score will be evaluated 3 h 30 min after kaolin administration by:
2: intermittent raising of the paw

rats [3] = assay: Post-operative pain: Brennan model, electronic Von Frey test (Example 13); type: in vivo, rat; details: Compound I-1 p.o. 10 mg/kg, 120 minutes after treatment
From the text: Surgery: Surgery was done under gas anesthesia (2.5% isoflurane/3 L/min). For all rats, the plantar aspect of the left hind paw was exposed and a 1 cm longitudinal incision was made using a surgical blade, through the skin and fascia of the plantar aspect of the foot, starting 0.5 cm from the proximal edge of the heel and extending toward the toes. The plantaris muscle was elevated and incised longitudinally whereas the insertions remained intact. After hemostasis with gentle pressure, the skin was stitched up with two sutures. After surgery, animals recovered in their cages.
Electronic Von Frey Test: Tactile allodynia was assessed using the electronic Von Frey test 24 h after surgery. […] The apparatus exerted a steady force on the hind paws. […] Each reaction threshold measurement was repeated three times for both hind paws with intervals of approximately 2 to 3 mins.

cGMP in mouse brain = assay: Compound-induced cGMP in mouse brain (Example 9); type: in vivo; details: 30 min after dosing
Description: Objective. To determine the effect of different doses of a compound of the invention in cGMP response and compound concentration in different areas of the mouse brain (cortex, hippocampus, cerebellum and striatum) and compound concentration in blood
Protocol. Mice (n=7-8 per experimental condition) were dosed PO with vehicle (1% hydroxypropyl methyl cellulose, 0.2% Tween80, 0.5% methyl cellulose) or 0.3, 1, 3 or 10 mg/Kg of Compound I-1 prepared in vehicle. Thirty minutes after dosing, under isoflurane anesthesia, the mouse was decapitated and the brain was removed and placed into an ice-cold petri dish containing slushy dissection solution (saturated with 95% O2·5% CO2). Using an ice-cold spatula, the brain was transferred to mouse brain matrix with coronal spacing for slicing at 1 mm intervals, as shown in FIG. 5 (not to scale, just a scheme).
The sliced brain was transferred back into petri dish containing slushy dissection solution with IBMX 0.5 mM (saturated with 95% O2/5% CO2). The dorsal striatum is dissected first, followed by the hippocampus second, followed by the medial prefrontal cortex third, and lastly, the cerebellum fourth. After each region is dissected the dissected tissue was immediately placed into an eppendorf that was placed on dry ice for the previous 30 minutes. Small pieces of tissue froze very fast, within 10 seconds approximately. After all regions were placed in an eppendorf, the eppendorfs were then snap frozen by immersion into liquid nitrogen. The whole blood sample was collected from the trunk area using mitra tips. Tissue samples were stored in the −80° C. and mitra tips at room temperature. cGMP and compound levels in brain and blood were determined by LC/MS; protein quantification of brain samples was determined using BCA protein assay kit.

[4] = test system: Sprague-Dawley rats, streptozotocin model; assay: Rat model of diabetic neuropathy (STZ model), paw pressure test (Example 14); type: in vivo; details: Compound I-1 10 mg/kg p.o., mean±s.e.m.

## Fc1ccccc1Cc1nc(-c2nc(C(F)(F)F)n[nH]2)cn2ccnc12 [Compound I-1, 8-(2-fluorobenzyl)-6-(3-(trifluoromethyl)-1H-1,2,4-triazol-5-yl)imidazo[1,2-a]pyrazine]
cGMP in rat CSF; 3 mg/kg PO
  CSF Conc. (nM @ 1 h): 7.2* nM
  CSF Conc. (nM @ 6 h): 6.7 nM
cGMP in rat CSF; 10 mg/kg PO
  CSF Conc. (nM @ 1 h): 14.8** nM
  CSF Conc. (nM @ 6 h): 13.8* nM
Rats [1]
  % of activity vs. vehicle: 7%
Rats [2]
  % of activity vs. vehicle: 40%
Rats [3]
  % of activity vs. vehicle: 31%
cGMP in mouse brain; 0.3 MPK PO
  CEREBELLUM nM cGMP/μg protein: 0.3199 nM cGMP/μg protein
  CORTEX nM cGMP/μg protein: 0.07761 nM cGMP/μg protein
  Hippocampus nM cGMP/μg protein: 0.04255 nM cGMP/μg protein
  STRIATUM nM cGMP/μg protein: 0.02261 nM cGMP/μg protein
cGMP in mouse brain; 1 MPK PO
  CEREBELLUM nM cGMP/μg protein: 0.4577 nM cGMP/μg protein
  CORTEX nM cGMP/μg protein: 0.08064 nM cGMP/μg protein
  Hippocampus nM cGMP/μg protein: 0.04302 nM cGMP/μg protein
  STRIATUM nM cGMP/μg protein: 0.03124 nM cGMP/μg protein
cGMP in mouse brain; 3 MPK PO
  CEREBELLUM nM cGMP/μg protein: 0.7524 nM cGMP/μg protein
  CORTEX nM cGMP/μg protein: 0.1081 nM cGMP/μg protein
  Hippocampus nM cGMP/μg protein: 0.0519 nM cGMP/μg protein
  STRIATUM nM cGMP/μg protein: 0.03719 nM cGMP/μg protein
cGMP in mouse brain; 10 MPK PO
  CEREBELLUM nM cGMP/μg protein: 1.796**** nM cGMP/μg protein
  CORTEX nM cGMP/μg protein: 0.1734* nM cGMP/μg protein
  Hippocampus nM cGMP/μg protein: 0.1171** nM cGMP/μg protein
  STRIATUM nM cGMP/μg protein: 0.04612* nM cGMP/μg protein
[4]; D18, 60 min post administration, gabapentin 100 mg/kg p.o., morphine 4 mg/kg s.c.
  nociceptive threshold (paw pressure test): 328 ± 32.6 g
[4]; D18, 120 min post administration, gabapentin 100 mg/kg p.o., morphine 4 mg/kg s.c.
  nociceptive threshold (paw pressure test): 387 ± 30.2 g
[4]; D18, 180 min post administration
  nociceptive threshold (paw pressure test): 319 ± 23.1 g
[4]; D21, 120 min after dosing, gabapentin 100 mg/kg p.o., morphine 4 mg/kg s.c.
  nociceptive threshold (paw pressure test): 346 ± 20.5 g
[4]; D21, baseline prior to administration (Cmin, daily dosing from D18)
  nociceptive threshold (paw pressure test): 259 ± 25.6 g
